Experimental data published in the supplement of paper PMC10307832.

Columns and labels:
Assay in all cases: relative viability (nuclei count vs DMSO), 5 days (fraction); higher = more cells survive
XMD13-2 + AZD7762 = compound: C1CC1C(=O)NC2=NNC3=C2C=CC(=C3)C4=CC(=CC=C4)C(=O)NC5CC5 [XMD13-2] + NC(=O)Nc1cc(-c2cccc(F)c2)sc1C(=O)N[C@H]1CCCNC1 [AZD7762] (partner 0.2 µM)
Method in brief: (§1)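 Relative viability was taken as the ratio of nuclei in treated wells to nuclei in vehicle wells. Lung cancer cell lines in 1536-well plates received compounds by pin tool one day after seeding, either one drug alone or a fixed anchor-drug dose plus five library-drug doses (not always all listed) in √10 steps. Nuclei were counted on 4× images after 5 days of treatment, and values are medians of duplicate plates.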

ALW-II-49-7 + Foretinib = compound: Cc1ccc(C(=O)Nc2cccc(C(F)(F)F)c2)cc1Nc1cncc(C(N)=O)c1 [ALW-II-49-7] + COc1cc2c(Oc3ccc(NC(=O)C4(C(=O)Nc5ccc(F)cc5)CC4)cc3F)ccnc2cc1OCCCN1CCOCC1 [Foretinib] (partner 0.25 µM)
Method in brief: as §1

ALW-II-49-7 + Linsitinib = compound: Cc1ccc(C(=O)Nc2cccc(C(F)(F)F)c2)cc1Nc1cncc(C(N)=O)c1 [ALW-II-49-7] + C[C@]1(O)C[C@@H](c2nc(-c3ccc4ccc(-c5ccccc5)nc4c3)c3c(N)nccn32)C1 [Linsitinib] (partner 1 µM)
Method in brief: as §1

Dasatinib + Pictilisib = compound: Cc1nc(Nc2ncc(C(=O)Nc3c(C)cccc3Cl)s2)cc(N2CCN(CCO)CC2)n1 [Dasatinib] + CS(=O)(=O)N1CCN(Cc2cc3nc(-c4cccc5[nH]ncc45)nc(N4CCOCC4)c3s2)CC1 [Pictilisib] (partner 1 µM)
Method in brief: as §1

Cell Line	relative viability (XMD13-2 + AZD7762; first compound 0.05 µM)	relative viability (XMD13-2 + AZD7762; first compound 0.1581 µM)	relative viability (XMD13-2 + AZD7762; first compound 0.5 µM)	relative viability (XMD13-2 + AZD7762; first compound 1.581 µM)	relative viability (XMD13-2 + AZD7762; first compound 5 µM)	relative viability (ALW-II-49-7 + Foretinib; first compound 0.08 µM)	relative viability (ALW-II-49-7 + Foretinib; first compound 0.253 µM)	relative viability (ALW-II-49-7 + Foretinib; first compound 0.8 µM)	relative viability (ALW-II-49-7 + Foretinib; first compound 2.53 µM)	relative viability (ALW-II-49-7 + Foretinib; first compound 8 µM)	relative viability (ALW-II-49-7 + Linsitinib; first compound 0.08 µM)	relative viability (ALW-II-49-7 + Linsitinib; first compound 0.253 µM)	relative viability (ALW-II-49-7 + Linsitinib; first compound 0.8 µM)	relative viability (ALW-II-49-7 + Linsitinib; first compound 2.53 µM)	relative viability (ALW-II-49-7 + Linsitinib; first compound 8 µM)	relative viability (Dasatinib + Pictilisib; first compound 0.005 µM)	relative viability (Dasatinib + Pictilisib; first compound 0.01581 µM)	relative viability (Dasatinib + Pictilisib; first compound 0.05 µM)	relative viability (Dasatinib + Pictilisib; first compound 0.1581 µM)	relative viability (Dasatinib + Pictilisib; first compound 0.5 µM)
NCI-H838	0.986	1.04	1.06	0.967	0.954	0.988	1.12	1.04	1.12	1.24	1.06	1.08	1.06	1.14	1.15	0.444	0.297	0.276	0.218	0.189
NCI-H1355	0.854	0.881	0.787	0.636	0.793	1.05	0.895	0.969	0.887	1.02	0.731	0.872	0.797	0.752	0.758	0.452	0.233	0.397	0.297	0.282
NCI-H1395	0.408	0.404	0.423	0.38	0.419	1.09	1.03	1	1.03	0.943	1.09	1.22	1.11	0.305	1.08	0.713	0.593	0.552	0.337	0.376
NCI-H1437	1.24	1.14	1.18	1.09	1.17	1.35	1.26	1.2	1.26	1.16	0.935	1.04	–	0.942	0.754	0.543	0.408	0.37	0.31	0.222
NCI-H1651	0.515	0.577	0.486	0.462	0.511	0.989	0.631	0.953	0.678	0.852	0.928	1.02	0.973	0.884	0.996	0.716	0.499	0.46	0.423	0.419
NCI-H1666	0.849	0.89	0.927	0.81	0.807	0.954	0.887	0.964	1.05	1.05	0.81	0.794	0.81	0.842	0.781	0.546	0.442	0.522	0.295	0.316
NCI-H1703	0.124	0.131	0.125	–	0.116	0.271	0.407	0.306	0.308	0.352	0.564	0.78	0.567	0.277	0.224	0.2	0.195	0.203	0.179	0.169
NCI-H1734	0.66	0.673	0.548	0.501	0.493	0.958	0.91	0.871	0.741	0.799	0.927	0.911	0.872	0.815	0.828	0.367	0.362	0.355	0.307	0.229
